Experimental data as given in patent US11779600B2, “Methods of treating or preventing alzheimer's disease and associated conditions” (CEDARS-SINAI MEDICAL CENTER, priority 2016, dated 2023).

What was measured:
[1] = system: infiltrating OPN+CD45high cells; test: OPN+CD45high infiltrating cell count in ADtg mouse brain; type: in vivo; conditions: cell count per section, vs PBS controls (FIG. 13F)
Description: (§1) ADtg mice (10 months old) received subcutaneous injections of GA [also known as Cop-1 and Copaxone®; 100 μg in phosphate-buffered saline (PBS)] or PBS alone (control group) twice a week for 1 week and then once a week for 8 weeks. For evaluation of innate immune infiltration to the brain by flow cytometry, 10-month-old ADtg mice received subcutaneous injections of GA (100 mg in PBS) or PBS alone twice a week for 1 week and then once a week for 3 weeks. At the end of the study, all mice were anaesthetized and then perfused with ice-cold PBS with 0.5 mM EDTA, after which their organs were collected and analyzed or fixed in 2.5% paraformaldehyde (Sigma-Aldrich), and cryoprotected with 30% sucrose for further histological analysis.
CD115^+ monocytes from mice donors were isolated as previously reported (Koronyo et al., Brain: a journal of neurology 2015,138:2399-2422). In brief, bone marrow cells were harvested from the femora, tibiae, and humeri and enriched for mononuclear cells on a Ficoll-Paque® PLUS (17-1440-03, GE Healthcare) density gradient. […]
The number and area (μm^2) of OPN+ cells, Iba1^+CD45^hi cells, GFAP^+ cells, Thio-S^+ amyloid-βplaques and 4G8^+ amyloid-βplaques were determined by examining four to six coronal sections per mouse at 150-μm intervals over an area covering both the hippocampal and cortical (including entorhinal and cingulate cortex) regions. […]

[2] = system: ADtg mice; test: Barnes maze behavioral test in AD mice; type: in vivo, mouse
Description: as §1
CD115^+ monocytes from mice donors were isolated as previously reported (Koronyo et al., Brain: a journal of neurology 2015,138:2399-2422). […]
The Barnes maze is a spatial-learning task that allows subjects to use spatial cues to locate a means of escape from a mildly aversive environment (open space with light projection); mice are required to use spatial cues to find an escape location. The mice are assessed for their ability to learn the location of an escape box over the course of 9 days in the Barnes maze apparatus. […]

Substance: glatiramer acetate [GA]
- increase in number of infiltrating OPN+CD45high cells [1]: 1.5 fold
- cognition [2]: retained cognition
